Data as given in US9951051B2, “Process for producing alkynylketone derivative” (Shionogi & Co., Ltd., priority 2014, dated 2018).
Structures can show the parent of a compound that is named as a salt.

Assay: Solubility test of methanesulfonate of Compound represented by Formula (II″)
Type: physicochemical
Conditions: HPLC method A; for concentration in supernatant solution (solubility): 20 to 25 °C, slurry stirred over two hours; for concentration of crystalline form dissolved into the solution: Conditions in Example 2 (DMSO/NMM/THF/MeCN), 0 °C
Procedure: Crystalline form of methanesulfonate of Compound represented by Formula (II″) and crystalline form of free form of Compound represented by Formula (II″) were suspended in tetrahydrofuran or acetonitrile, respectively. The slurries were stirred at 20° C. to 25° C. for over two hours, and then the concentration in each supernatant solution was measured (HPLC method A). The HPLC results of the concentration in each supernatant solution are indicated as Table 12.
Moreover, the concentration of each crystalline form being dissolved into the solution at 0° C. in Step 1 (Step to obtain the crystalline form of methanesulfonate) and Step 2 (Step to obtain the crystalline form of free form) in Example 2 was measured by HPLC method A and compared (Table 12).

concentration in supernatant solution (solubility) (Acetonitrile) [%] | concentration of crystalline form dissolved into the solution [%] | concentration of crystalline form dissolved into the solution (listed as free form of Compound represented by (II″)) [%] | concentration in supernatant solution (solubility) (Tetrahydrofuran) [%] | concentration of crystalline form dissolved into the solution (listed as methanesulfonate of Compound represented by (II″)) [%] | SMILES
0.3 | 15.7 | 15.7 | 3.6 |  | CC#CC(=O)c1ccc2ncnc(Nc3ccc(OCc4cccc(F)c4)c(Cl)c3)c2c1 [Free form of Formula (II″), 4-(3-chloro-4-(3-fluorobenzyloxy)phenylamino)-6-(1-oxo-2-butyn-1-yl)quinazoline]
0.05 | 3.1 |  | 0.05 | 3.1 | CC#CC(=O)c1ccc2ncnc(Nc3ccc(OCc4cccc(F)c4)c(Cl)c3)c2c1 [MsOH salt of Formula (II″)]
